Laboratory results reported in patent publication US20250090875A9, “IMMUNOSTIMULATORY COMPOUNDS AND CONJUGATES” (Seagen Inc., priority 2021, published 2025).

How the values were obtained:
[1] = target: T1, hTLR7 (Homo sapiens, UniProt Q9NYK1); assay: HEK Blue hTLR7 cell assay of free TLR7/8 agonists; type: cell-based; conditions: for EC50: HEK Blue hTLR7 cells, free agonist; for TLR7/TLR8: ratio of EC50 hTLR7 to EC50 hTLR8
T1 construct: expressed in transfected cells; host or cells: HEK Blue hTLR7 cells
T1 sequence (Q9NYK1 27-1049): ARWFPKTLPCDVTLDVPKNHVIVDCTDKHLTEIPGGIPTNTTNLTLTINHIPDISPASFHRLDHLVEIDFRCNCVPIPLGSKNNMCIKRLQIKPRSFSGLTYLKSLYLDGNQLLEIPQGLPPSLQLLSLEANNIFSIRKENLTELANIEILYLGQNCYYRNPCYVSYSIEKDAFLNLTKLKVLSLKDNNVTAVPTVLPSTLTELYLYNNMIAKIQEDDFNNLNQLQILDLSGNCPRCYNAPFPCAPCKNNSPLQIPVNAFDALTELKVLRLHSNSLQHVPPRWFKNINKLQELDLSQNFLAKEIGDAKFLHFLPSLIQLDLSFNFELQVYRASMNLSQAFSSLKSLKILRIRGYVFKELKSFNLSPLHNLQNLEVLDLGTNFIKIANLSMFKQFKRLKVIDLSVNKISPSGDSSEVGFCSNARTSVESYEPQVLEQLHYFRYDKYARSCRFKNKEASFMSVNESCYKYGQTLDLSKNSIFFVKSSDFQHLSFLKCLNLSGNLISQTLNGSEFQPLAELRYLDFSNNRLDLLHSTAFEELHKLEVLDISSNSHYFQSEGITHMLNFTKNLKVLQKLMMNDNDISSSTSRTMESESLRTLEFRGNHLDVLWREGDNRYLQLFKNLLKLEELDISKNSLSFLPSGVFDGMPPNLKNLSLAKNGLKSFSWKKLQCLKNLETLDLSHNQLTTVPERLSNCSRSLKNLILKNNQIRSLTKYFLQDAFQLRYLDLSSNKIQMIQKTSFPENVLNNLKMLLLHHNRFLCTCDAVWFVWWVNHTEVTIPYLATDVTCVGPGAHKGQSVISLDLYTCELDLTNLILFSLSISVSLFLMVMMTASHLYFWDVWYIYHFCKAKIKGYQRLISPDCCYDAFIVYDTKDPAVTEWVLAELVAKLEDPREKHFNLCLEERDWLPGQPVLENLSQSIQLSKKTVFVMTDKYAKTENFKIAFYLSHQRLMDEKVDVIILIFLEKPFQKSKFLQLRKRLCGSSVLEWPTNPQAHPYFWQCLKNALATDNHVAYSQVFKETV
Procedure: (§1) This example covers toll-like receptor 7 (TLR7) and toll-like receptor 8 (TLR8) selectivity of imidazoquinoline agonists. Assessment of TLR7 and TLR8 selectivity for the free TLR7/8 agonists was performed using HEK Blue hTLR7 and hTLR8 cells over a large dose range of compounds. […] Activities were determined based on calculated EC50 (in μM) in each cell line, and are summarized in TABLE 4 below, with columns providing targets and rows providing compounds.

[2] = target: T2, hTLR8 (Homo sapiens, UniProt Q9NR97); assay: HEK Blue hTLR8 cell assay of free TLR7/8 agonists; type: cell-based; conditions: HEK Blue hTLR8 cells, free agonist
T2 construct: expressed in transfected cells; host or cells: HEK Blue hTLR8 cells
T2 sequence (Q9NR97 27-1041): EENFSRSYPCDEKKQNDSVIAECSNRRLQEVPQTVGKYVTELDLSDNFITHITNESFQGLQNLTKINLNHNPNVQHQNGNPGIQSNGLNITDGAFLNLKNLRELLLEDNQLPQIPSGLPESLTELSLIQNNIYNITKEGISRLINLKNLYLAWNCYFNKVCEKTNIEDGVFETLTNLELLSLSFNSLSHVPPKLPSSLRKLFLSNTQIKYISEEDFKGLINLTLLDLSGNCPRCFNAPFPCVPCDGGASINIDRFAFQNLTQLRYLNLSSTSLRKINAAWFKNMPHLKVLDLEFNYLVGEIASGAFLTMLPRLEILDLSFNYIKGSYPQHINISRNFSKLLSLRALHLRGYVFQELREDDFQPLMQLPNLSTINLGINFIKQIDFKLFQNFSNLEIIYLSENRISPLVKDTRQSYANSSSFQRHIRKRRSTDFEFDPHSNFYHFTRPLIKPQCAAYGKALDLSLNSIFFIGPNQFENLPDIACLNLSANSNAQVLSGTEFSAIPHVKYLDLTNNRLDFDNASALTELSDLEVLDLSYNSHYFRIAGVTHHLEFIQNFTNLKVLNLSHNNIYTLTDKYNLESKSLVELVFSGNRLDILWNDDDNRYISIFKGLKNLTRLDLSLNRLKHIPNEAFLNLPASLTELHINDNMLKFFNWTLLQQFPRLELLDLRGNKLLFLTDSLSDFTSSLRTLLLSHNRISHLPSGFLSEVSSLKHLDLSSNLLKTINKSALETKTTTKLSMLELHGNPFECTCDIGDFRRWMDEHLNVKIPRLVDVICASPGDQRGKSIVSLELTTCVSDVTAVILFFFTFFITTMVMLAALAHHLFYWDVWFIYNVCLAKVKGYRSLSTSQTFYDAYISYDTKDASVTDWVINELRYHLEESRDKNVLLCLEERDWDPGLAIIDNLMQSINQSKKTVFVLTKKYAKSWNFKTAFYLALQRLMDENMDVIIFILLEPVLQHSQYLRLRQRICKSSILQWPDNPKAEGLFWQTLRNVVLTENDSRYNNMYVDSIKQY
Procedure: as §1

[3] = tested on: primary human PBMCs; assay: Cytokine induction in primary human PBMCs by small molecule TLR7/8 agonists (Luminex); type: cell-based; conditions: free drug
Procedure: This example covers dose dependent human immune cell activation by small molecule TLR7/8 agonists. Primary human PBMCs were isolated from peripheral whole blood from human donors and were subjected to treatment with increasing concentrations of the agonists diluted in PBS. Cell culture supernatants were harvested 24 h after treatment and analyzed for induction of cytokines via multiplex ELISAs (Luminex).
Several small molecule TLR7/8 agonists were assessed for their ability to activate human immune cells in a dose dependent manner. Primary human PBMCs were isolated from peripheral whole blood from human donors and were subjected to treatment with increasing concentrations of the agonists diluted in PBS. 24 h after treatment cell culture supernatants were harvested and analyzed for induction of cytokines via multiplex ELISAs (Luminex).

[4] = SEC analysis of ADC aggregation (high molecular weight species) in plasma; type: physicochemical; conditions: ADC incubated with human or mouse plasma, FIG. 9
Procedure: Method I: Size-exclusion chromatography (SEC) was performed with a Waters ACQUITY UPLC system and an Acquity UPLC Protein BEH SEC Column, (200 Å, 1.7 μm, 4.6×150 mm, PN: 186005225). The mobile phase used was 7.5% isopropanol in 92.5% aqueous (25 mM sodium phosphate, 350 mM NaCl, pH 6.8), v/v. Elution was performed isocratically at a flow rate of 0.4 mL/min at ambient temperature.
To determine if any of these differences in activity potentially resulted from increases in aggregation as a subsequent result of changes in charge, SEC analysis was performed. ADCs containing either S18a (methyl ester) or S18b (carboxylic acid) were incubated with both human or mouse plasma and assessed for the formation of high molecular weight species (HMW) over time.

[5] = tested on: Renca tumors; assay: Renca kidney carcinoma model in Balb/c mice; type: in vivo, mouse; conditions: ADC, q7dx3 from ~100 mm^3, FIG. 14
Procedure: The difference in anti-tumor activity of the S18a and S18b conjugates was also assessed in the Renca kidney model. In this model, mice bearing Renca tumors were treated q7dx3 when tumors reached ˜100 mm^3 as indicated, and followed for mean group tumor growth (FIG. 14, top) and survival (FIG. 14, bottom) over time.
This example covers cancer treatment with EphA2 targeted TLR agonists. […] Balb/c mice were implanted with Renca tumor cells and when cells reached 100 mm^3 they were treated Q7dx3 treatments with 2.4 mg/kg of the indicated IDC, either non targeting isotype or an EphA2 targeting mAb.

Row | SMILES | EC50 [1] | TLR7/TLR8 [1] | EC50 [2] | IL12p40 and IL1β responses ([3]; FIG. 5) | potency and activity of cytokine induction (IL6, TNFα, MCP1, IP10) ([3]; ranking, FIG. 30) | aggregation (formation of high molecular weight species over time) [4] | tumor growth and survival [5]
1 | CCCCc1nc2c(N)nc3cc(C(=O)OC)ccc3c2n1CCCCCN [S14a] | 2.53 µM | 0.28 | 8.84 µM | – | – | – | –
2 | CCCCc1nc2c(N)nc3cc(C(=O)OC)ccc3c2n1Cc1ccc(CN(C)C)cc1 [S18a] | 0.44 µM | 0.04 | 10.3 µM | lower responses of both cytokines | other two most potent compounds | no significant difference in the amounts of aggregation | some tumor growth benefit though no real survival benefit
